According to publication PMC7408547, “Bivalent Inhibitor with Selectivity for Trimeric MMP-9 Amplifies Neutrophil Chemotaxis and Enables Functional Studies on MMP-9 Proteoforms” (Cells, 2020):
Values joined by “and” are separate entries in the source; they are usually repeats but may differ in a detail not shown here. Identical values can stand only once.

Legend:
Type in all cases: biochemical
[1] = target: T1, MMP-8/neutrophil collagenase (Homo sapiens, UniProt P22894); experiment: MMP-8 OmniMMP peptide assay; settings: for IC50: OmniMMP substrate peptide
T1 construct: purchased R & D systems; host or cells: NS0 cells
Experimental: (§1) Compounds 5 and 7 were synthesized as previously reported. Full-length human proMMP-9 was produced by recombinant expression in Sf9 insect cells and purified by gelatin-Sepharose chromatography as previously described. Stable full-length proMMP-9 monomers and trimers were separated by glycerol gradient ultracentrifugation as previously described. ProMMP-9 mixture and the separated monomers and trimers were activated by incubation with the catalytic domain of MMP-3 (cat. No. 444217, Merck Millipore, Darmstadt, Germany) as previously described. Activation of proMMP-9 was confirmed by a band shift of ±10 kDa, corresponding to the removal of the auto-inhibitory propeptide domain and by detection of gelatinolytic activity with a previously described gelatin degradation assay. MMP-9 monomers and trimers purified from human neutrophils were purchased (Cat. No. 444,231 and 444232, Sigma-Aldrich, St. Louis, MO, USA). Examples of sample purities and activations can be found in Supplementary Figure S1. […] ADAM17/TACE (Sf 21 (baculovirus)-derived, R & D systems, Minneapolis, MO, USA) was diluted and evaluated in 25 mM Tris, 2.5 μM ZnCl2, 0.005% Brij-35, pH 9.0. All stocks of the compounds were evaluated for the presence of endotoxin using the EndoZyme II assay (Hyglos bioMérieux, Bernried am Starnberger See, Germany). […]
To determine the inhibition of gelatinolytic activity, we used a previously optimized gelatin degradation assay. […] Next, dye-quenched gelatin (DQ™-gelatin, Invitrogen, Carlsbad, CA, USA) was added at a final concentration of 2.5 µg/mL and the increase in fluorescence over time was measured with the CLARIOstar microplate reader (BMG Labtech, Ortenberg, Germany). […] Proteolytic activity was determined by linear regression of the fluorescence curve and the percentage inhibition was calculated through comparison with the positive control (no inhibitors). […]

[2] = target: T2, recombinant human MMP-9 trimers (Homo sapiens, UniProt P14780); experiment: Fluorogenic peptide (OmniMMP) degradation assay, recombinant MMP-9 trimers; settings: recombinant human MMP-9 (Sf9) tri
T2 construct: made in house; host or cells: Sf9 insect cells
Experimental: (§2) Compounds 5 and 7 were synthesized as previously reported. Full-length human proMMP-9 was produced by recombinant expression in Sf9 insect cells and purified by gelatin-Sepharose chromatography as previously described. Stable full-length proMMP-9 monomers and trimers were separated by glycerol gradient ultracentrifugation as previously described. ProMMP-9 mixture and the separated monomers and trimers were activated by incubation with the catalytic domain of MMP-3 (cat. No. 444217, Merck Millipore, Darmstadt, Germany) as previously described. Activation of proMMP-9 was confirmed by a band shift of ±10 kDa, corresponding to the removal of the auto-inhibitory propeptide domain and by detection of gelatinolytic activity with a previously described gelatin degradation assay. MMP-9 monomers and trimers purified from human neutrophils were purchased (Cat. No. 444,231 and 444232, Sigma-Aldrich, St. Louis, MO, USA). Examples of sample purities and activations can be found in Supplementary Figure S1. Recombinant human proMMP-2 (CHO cell-derived), proMMP-3 (NS0 cell-derived), proMMP-7 (NS0 cell-derived) and proMMP-8 (NS0 cell-derived) were purchased from R & D systems (Minneapolis, MN, USA), dissolved in assay buffer (150 mM NaCl, 5 mM CaCl2, 0.01% Tween-20, 50 mM Tris, pH 7.4) to a concentration of 100 µg/mL and activated by incubation with 1 mM p-aminophenylmercuric acetate for, respectively, 1h, 6h, 2h and 1h. Activation of MMPs was confirmed by a band shift of approximately 10 kDa, corresponding to the removal of the propeptide domain. MMP-14/MT1-MMP (NS0 cell-derived) was also purchased from R & D systems (Minneapolis, MN, USA) and activated by incubation with recombinant human furin (cat. No. 1503-SE-010, R & D systems, Minneapolis, MO, USA) in activation buffer (50 mM Tris, 1 mM CaCl2, 0.5% Brij-35, pH 9) for 1.5 h and activity was tested in assay buffer (50 mM Tris, 3 mM CaCl2, 1 µM ZnCl2, pH 8.5). Active human neutrophil elastase (NE) was purchased from Abcam (Cambridge, UK) and for activity assays of NE the assay buffer was replaced by 200 mM Tris, pH 8.8. ADAM17/TACE (Sf 21 (baculovirus)-derived, R & D systems, Minneapolis, MO, USA) was diluted and evaluated in 25 mM Tris, 2.5 μM ZnCl2, 0.005% Brij-35, pH 9.0. All stocks of the compounds were evaluated for the presence of endotoxin using the EndoZyme II assay (Hyglos bioMérieux, Bernried am Starnberger See, Germany). Endotoxin levels in all concentrated stocks (2.5 mg/mL) were below the accepted limit of 0.5 EU/mL.
(§3) To determine the inhibition of gelatinolytic activity, we used a previously optimized gelatin degradation assay. Activated MMP-9, activated MMP-2, neutrophil elastase or supernatants of stimulated neutrophils, were incubated with different concentrations of inhibitors and incubated for 30 min at 37 °C. Next, dye-quenched gelatin (DQ™-gelatin, Invitrogen, Carlsbad, CA, USA) was added at a final concentration of 2.5 µg/mL and the increase in fluorescence over time was measured with the CLARIOstar microplate reader (BMG Labtech, Ortenberg, Germany). For other MMPs, the OmniMMP substrate peptide (Mca-PLGL-Dpa-AR-NH2, cat. no. BML-P126-0001, Enzo Life Sciences, Farmingdale, NY, USA) was used at a final concentration of 2.5 µg/mL. For ADAM17 the fluorogenic peptide Mca-PLAQAV-Dpa-RSSSR-NH2 (ES003, R & D systems, Minneapolis, MO, USA) and for neutrophil elastase the fluorogenic substrate MeOSuc-AAPV-AMC (cat. no. 324740, Merck Millipore, Darmstadt, Germany) were used. Proteolytic activity was determined by linear regression of the fluorescence curve and the percentage inhibition was calculated through comparison with the positive control (no inhibitors). When testing supernatants from human neutrophils, the assay was performed in the presence of 20 µM neutrophil elastase inhibitor (Elastase Inhibitor IV, Calbiochem, Darmstadt, Germany).

[3] = target: T3, recombinant human MMP-9 monomers (Homo sapiens, UniProt P14780); experiment: Fluorogenic peptide (OmniMMP) degradation assay, recombinant MMP-9 monomers; settings: recombinant human MMP-9 (Sf9) mono
T3 construct: made in house; host or cells: Sf9 insect cells
Experimental: as §2
To determine the inhibition of gelatinolytic activity, we used a previously optimized gelatin degradation assay. […] […] […] BML-P126-0001, Enzo Life Sciences, Farmingdale, NY, USA) was used at a final concentration of 2.5 µg/mL. For ADAM17 the fluorogenic peptide Mca-PLAQAV-Dpa-RSSSR-NH2 (ES003, R & D systems, Minneapolis, MO, USA) and for neutrophil elastase the fluorogenic substrate MeOSuc-AAPV-AMC (cat. no. 324740, Merck Millipore, Darmstadt, Germany) were used. Proteolytic activity was determined by linear regression of the fluorescence curve and the percentage inhibition was calculated through comparison with the positive control (no inhibitors). When testing supernatants from human neutrophils, the assay was performed in the presence of 20 µM neutrophil elastase inhibitor (Elastase Inhibitor IV, Calbiochem, Darmstadt, Germany).

[4] = target: T3, recombinant human MMP-9 monomers; experiment: Gelatin degradation assay, recombinant MMP-9 monomers; settings: recombinant human MMP-9 (Sf9) mono
Experimental: as §2, §3

MMP-2 = target: T4, MMP-2 (Homo sapiens, UniProt P08253); experiment: MMP-2 gelatin degradation assay; settings: gelatin substrate
T4 construct: purchased R & D systems; host or cells: CHO cells
T4 sequence (P08253 110-660): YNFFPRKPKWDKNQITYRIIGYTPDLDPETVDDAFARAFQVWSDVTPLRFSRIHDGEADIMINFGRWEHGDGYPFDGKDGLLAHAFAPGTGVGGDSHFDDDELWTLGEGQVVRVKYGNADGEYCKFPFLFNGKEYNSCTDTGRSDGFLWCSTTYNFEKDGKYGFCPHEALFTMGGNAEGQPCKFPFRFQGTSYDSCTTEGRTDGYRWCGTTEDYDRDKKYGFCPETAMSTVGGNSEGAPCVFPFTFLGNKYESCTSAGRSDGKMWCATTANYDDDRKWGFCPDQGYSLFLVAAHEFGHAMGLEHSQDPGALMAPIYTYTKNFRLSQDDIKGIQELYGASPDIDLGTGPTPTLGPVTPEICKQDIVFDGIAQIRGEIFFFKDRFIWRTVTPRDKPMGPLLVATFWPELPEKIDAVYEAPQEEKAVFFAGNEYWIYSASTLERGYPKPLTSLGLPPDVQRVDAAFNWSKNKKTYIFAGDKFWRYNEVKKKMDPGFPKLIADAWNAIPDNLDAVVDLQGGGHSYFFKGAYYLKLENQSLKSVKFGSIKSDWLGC
Experimental: as §1, with “described.” for “described. Activation of proMMP-9 was confirmed by a band shift of ±10 kDa, corresponding to the removal of the auto-inhibitory propeptide domain and by detection of gelatinolytic activity with a previously described gelatin degradation assay. MMP-9 monomers and trimers purified from human neutrophils were purchased (Cat. No. 444,231 and 444232, Sigma-Aldrich, St. Louis, MO, USA). Examples of sample purities and activations can be found in Supplementary Figure S1.”
To determine the inhibition of gelatinolytic activity, we used a previously optimized gelatin degradation assay. […] Next, dye-quenched gelatin (DQ™-gelatin, Invitrogen, Carlsbad, CA, USA) was added at a final concentration of 2.5 µg/mL and the increase in fluorescence over time was measured with the CLARIOstar microplate reader (BMG Labtech, Ortenberg, Germany). […]

T1 sequence (P22894 101-467): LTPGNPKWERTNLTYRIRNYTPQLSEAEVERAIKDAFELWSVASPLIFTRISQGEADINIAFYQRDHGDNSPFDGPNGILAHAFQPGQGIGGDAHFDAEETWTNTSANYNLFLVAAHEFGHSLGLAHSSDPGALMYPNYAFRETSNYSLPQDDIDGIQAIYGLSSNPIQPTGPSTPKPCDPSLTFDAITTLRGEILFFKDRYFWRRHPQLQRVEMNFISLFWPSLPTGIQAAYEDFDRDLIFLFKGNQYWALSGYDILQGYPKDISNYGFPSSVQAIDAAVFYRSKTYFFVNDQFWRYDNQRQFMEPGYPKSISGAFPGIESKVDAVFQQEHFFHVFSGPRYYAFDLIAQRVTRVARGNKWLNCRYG
T2 sequence (P14780 107-707 limits assumed): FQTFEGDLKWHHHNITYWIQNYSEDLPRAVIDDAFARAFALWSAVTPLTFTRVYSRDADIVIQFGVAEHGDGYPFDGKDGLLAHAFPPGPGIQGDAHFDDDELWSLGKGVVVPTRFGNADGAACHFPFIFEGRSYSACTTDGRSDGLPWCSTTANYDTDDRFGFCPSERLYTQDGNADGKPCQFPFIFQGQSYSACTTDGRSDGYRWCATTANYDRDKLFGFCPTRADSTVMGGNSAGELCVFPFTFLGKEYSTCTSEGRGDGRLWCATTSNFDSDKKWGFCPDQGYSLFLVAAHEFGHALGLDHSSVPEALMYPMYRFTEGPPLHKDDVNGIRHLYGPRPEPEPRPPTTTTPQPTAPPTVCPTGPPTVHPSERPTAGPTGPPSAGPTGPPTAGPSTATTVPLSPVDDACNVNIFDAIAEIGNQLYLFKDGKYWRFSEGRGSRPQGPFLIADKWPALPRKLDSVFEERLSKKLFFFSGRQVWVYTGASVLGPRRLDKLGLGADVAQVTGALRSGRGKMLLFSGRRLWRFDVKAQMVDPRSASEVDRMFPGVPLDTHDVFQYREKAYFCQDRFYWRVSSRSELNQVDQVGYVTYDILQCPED
T3 sequence (P14780 107-707 limits assumed): as above

SMILES | IC50 [1] [nM] | IC25 [2] [nM] | IC50 [2] | IC75 [2] [nM] | IC25 [3] [nM] | IC50 [3] [nM] | IC75 [3] [nM] | IC25 [4] [nM] | IC50 [4] [nM] | IC75 [4] [nM] | IC50 (MMP-2) [nM] | fold less inhibition of MMP-8 than of trimeric MMP-9 ([1]; peptide substrate)
CC(C)[C@H](C(=O)O)N(CCNC(=O)c1ccccc1)S(=O)(=O)c1ccc(-c2ccccc2)cc1 [Compound 5] | 331 | 237 | 724 nM | 2211 | 232 | 718 | 2228 | 392 | 1520 | 5859 | 1720 | 
CC(C)[C@H](C(=O)O)N(CCNC(=O)c1cccc(C(=O)NCCN([C@@H](C(=O)O)C(C)C)S(=O)(=O)c2ccc(-c3ccccc3)cc2)c1)S(=O)(=O)c1ccc(-c2ccccc2)cc1 [Compound 7] | 14.5 | 0.0017 | ~0.1 nM and 0.1 nM | 6.0 | 10.5 | 56 | 296 | 48 | 191 | 754 | 4.8 | more than 100 fold
